According to ChEMBL document CHEMBL1201862, “PubChem BioAssay data set” (2004):
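1) Cells in 96-well plates. 2) Compound, 48 h, 5 concentrations. 3) Linear interpolation between surrounding doses. 4) Unreached endpoint = highest concentration. The concentration for 50% growth inhibition is given as GI50.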 Activity calls are given as the source filed them. Cut-off read from the data, not from the text of the source: active = GI50 up to about 1.1 µM and inactive = higher.

Key:
Assay in all cases: NCI tumour cell line growth inhibition, 48 h
KM12 = tested on: KM12
SF-539 = tested on: SF-539
HCT-15 = tested on: HCT-15
M19-MEL = tested on: M19-MEL
SNB-75 = tested on: SNB-75
CAKI-1 = tested on: CAKI-1
OVCAR-3 = tested on: OVCAR-3
NCI-H226 = tested on: NCI-H226
SW-620 = tested on: SW-620
SK-MEL-2 = tested on: SK-MEL-2
DLD-1 = tested on: DLD-1
SNB-19 = tested on: SNB-19
IGROV-1 = tested on: IGROV-1
UO-31 = tested on: UO-31
HCT-116 = tested on: HCT-116
UACC-62 = tested on: UACC-62
A498 = tested on: A498
MOLT-4 = tested on: MOLT-4
HOP-62 = tested on: HOP-62
COLO 205 = tested on: COLO 205
K562 = tested on: K562
U-251 = tested on: U-251
KM-20L2 = tested on: KM-20L2
OVCAR-8 = tested on: OVCAR-8
UACC-257 = tested on: UACC-257
SR = tested on: SR
XF498 = tested on: XF498
HL-60 = tested on: HL-60
EKVX = tested on: EKVX
786-0 = tested on: 786-0
SK-MEL-5 = tested on: SK-MEL-5
TK-10 = tested on: TK-10
ACHN = tested on: ACHN
HOP-92 = tested on: HOP-92
SN12C = tested on: SN12C
NCI-H23 = tested on: NCI-H23
OVCAR-5 = tested on: OVCAR-5
SK-MEL-28 = tested on: SK-MEL-28
CCRF-CEM = tested on: CCRF-CEM
SF-268 = tested on: SF-268
LOX IMVI = tested on: LOX IMVI
NCI-H460 = tested on: NCI-H460
A549 = tested on: A549
LXFL 529 = tested on: LXFL 529
SK-OV-3 = tested on: SK-OV-3
Malme-3M = tested on: Malme-3M
DMS-114 = tested on: DMS-114
HCC 2998 = tested on: HCC 2998
NCI-H522 = tested on: NCI-H522
M14 = tested on: M14
RPMI-8226 = tested on: RPMI-8226
OVCAR-4 = tested on: OVCAR-4
DMS-273 = tested on: DMS-273
SF-295 = tested on: SF-295
SNB-78 = tested on: SNB-78
HT-29 = tested on: HT-29
HOP-18 = tested on: HOP-18

Measured: GI50

Cc1ccc(S(=O)(=O)C2=c3nc4ccccc4cc3=C3C(=O)c4ccccc4C(=O)C32)cc1 (centres undefined)
> 100 µM: HCT-15
active: SK-OV-3 0.394 µM
inactive: KM12 > 100 µM | SF-539 > 100 µM | M19-MEL > 100 µM | SNB-75 43.3 µM | CAKI-1 > 100 µM | OVCAR-3 > 100 µM | NCI-H226 > 100 µM | SW-620 > 100 µM | SK-MEL-2 > 100 µM | DLD-1 > 100 µM | SNB-19 > 100 µM | IGROV-1 > 100 µM | UO-31 > 100 µM | HCT-116 > 100 µM | UACC-62 > 100 µM | A498 35 µM | MOLT-4 > 100 µM | HOP-62 > 100 µM | COLO 205 > 100 µM | K562 > 100 µM | U-251 > 100 µM | KM-20L2 > 100 µM | OVCAR-8 > 100 µM | UACC-257 > 100 µM | SR > 100 µM | XF498 > 100 µM | HL-60 > 100 µM | EKVX > 100 µM | 786-0 > 100 µM | SK-MEL-5 63.2 µM | TK-10 > 100 µM | ACHN > 100 µM | HOP-92 > 100 µM | SN12C > 100 µM | NCI-H23 > 100 µM | OVCAR-5 > 100 µM | SK-MEL-28 > 100 µM | CCRF-CEM > 100 µM | SF-268 > 100 µM | LOX IMVI > 100 µM | NCI-H460 > 100 µM | A549 > 100 µM | LXFL 529 > 100 µM | Malme-3M > 100 µM | DMS-114 > 100 µM | HCC 2998 > 100 µM | NCI-H522 > 100 µM | M14 > 100 µM | RPMI-8226 > 100 µM | OVCAR-4 > 100 µM | DMS-273 > 100 µM

Nc1nc(N)c(CCCCc2ccccc2)c(/C=C/c2ccc([N+](=O)[O-])cc2)n1
inactive: SF-295 1.42 µM | KM12 3.03 µM | SF-539 2.16 µM | M19-MEL 3.36 µM | SNB-75 2.47 µM | CAKI-1 3.92 µM | OVCAR-3 2.43 µM | NCI-H226 26.1 µM | SW-620 1.24 µM | SK-MEL-2 2.79 µM | DLD-1 2.39 µM | SNB-19 3.8 µM | IGROV-1 2.8 µM | SNB-78 2.59 µM | UO-31 1.91 µM | HCT-116 1.16 µM | UACC-62 2.07 µM | MOLT-4 1.14 µM | HOP-62 2.77 µM | COLO 205 3.39 µM | U-251 2.13 µM | KM-20L2 2.49 µM | OVCAR-8 2.59 µM | UACC-257 2.51 µM | SR 1.56 µM | XF498 1.84 µM | HL-60 1.35 µM | EKVX 4.44 µM | SK-MEL-5 2.18 µM | TK-10 1.8 µM | ACHN 3.4 µM | SN12C 2.74 µM | NCI-H23 3.86 µM | OVCAR-5 3.87 µM | SK-MEL-28 3.33 µM | CCRF-CEM 1.69 µM | SF-268 3.7 µM | LOX IMVI 1.85 µM | LXFL 529 3.21 µM | SK-OV-3 6.67 µM | Malme-3M 1.67 µM | DMS-114 1.45 µM | HCC 2998 2.65 µM | NCI-H522 2.24 µM | M14 1.89 µM | RPMI-8226 3.31 µM | OVCAR-4 3.94 µM
1.25 µM: HCT-15
active: K562 0.348 µM | 786-0 0.785 µM | HOP-92 0.0182 µM | HT-29 0.925 µM | NCI-H460 0.873 µM | A549 0.388 µM

CC(=O)Oc1cc(OC(C)=O)c2c(c1)OC(c1ccc(OC(C)=O)c(OC(C)=O)c1)CC2=O (centres undefined)
active: HL-60 0.458 µM | SN12C 0.0446 µM
inactive: SF-295 41.6 µM | SW-620 47.5 µM | UO-31 38.9 µM | HCT-116 63.7 µM | COLO 205 63.1 µM | SR 14.7 µM | SK-MEL-5 55.3 µM | TK-10 49.9 µM | HOP-92 29.8 µM | HOP-18 30.1 µM | CCRF-CEM 20.4 µM | A549 43.9 µM | SK-OV-3 71.9 µM | HCC 2998 > 100 µM | DMS-273 50.6 µM
